Laboratory results from patent EP2266622A2, “Prodrugs containing novel bio-cleavable linkers” (Piramal Life Sciences Limited, priority 2004, dated 2006).
“And” between values parts separate entries of the source, which are not always exact repeats. Equal entries are not always repeated. Where two headings read alike, the source gives them in different places.

Columns and labels:
clonic seizures [1] = assay: Test 1: Subcutaneous Metrazol Seizure Threshold Test (scMET), mice i.p.; format: in vivo; details: class symbol = dose
Procedure: (§1) Most of the prodrugs and mutual prodrugs of anticonvulsants described in this invention were evaluated at National Institute of Neurological Disorders and Stroke (NINDS), National Institute of Health (NIH), under their Antiepileptic Screening Program (ASP).
(§2) Test 1 is an initial screening for anticonvulsant activity in the Maximal Electroshock Test (MES) and Subcutaneous Metrazol Seizure Threshold Test (scMET) models combined with an initial assessment of toxicity (TOX) in mice via i.p. injection (see further explanation below). The data for each condition is presented as N/F, where N = number of animals protected from seizure and F = number of animals tested. For test of toxicity, N = number of animals displaying toxic effects and F = number of animals tested. Any deaths occurring during the test were recorded.
(§3) Subcutaneous Metrazol Seizure Threshold Test (scMET): Subcutaneous injection of the convulsant metrazol produces clonic seizures in laboratory animals. […] Animals were pretreated with various doses of the test compound given by i.p. injection. At the previously determined Time to Peak Effect (TPE) of the test compound, the dose of metrazol which will produce convulsions in 97% of animals (CD97: 85 mg/kg in mice) was injected into a loose fold of skin in the midline of the neck. The animals were placed in isolation cages to minimize stress and observed for the next 30 minutes for the presence or absence of a seizure. An episode of clonic spasms, approximately […], of the fore and/or hind limbs, jaws, or vibrissae is taken as the end point.

MES-induced seizures [2] = assay: Test 1: Maximal Electroshock Test (MES), mice i.p.; format: in vivo; details: for MES: class symbol = dose
Procedure: as §1, §2
(§4) Maximal Electroshock Test (MES): The MES is a model for generalized tonic-clonic seizure and provides an indication of a compound's ability to prevent seizure spread when all neuronal circuits in the brain are maximally active. These seizures are highly reproducible and electro-physiologically consistent with human seizures. For all tests based on MES convulsions, 60 Hz of alternating current (50 mA in mice) is delivered for […] by corneal electrodes, which have been primed with an electrolyte solution containing an anesthetic agent (0.5% tetracaine hydrochloride). Mice were tested at various intervals following doses of 30, 100 and 300 mg/kg of test compound given by i.p. injection of a volume of 0.01 mL/g. Other doses can be used if indicated by previously known pharmacology. An animal is considered "protected" from MES-induced seizures upon abolition of the hind-limb tonic extensor component of the seizure.

Neurological toxicity [3] = assay: Test 2: neurological toxicity, rats p.o.; format: in vivo; details: 30 mg/kg
Excerpt: (§5) Rats received test compounds orally.

[4] = test system: minimal muscular or neurological impairment; assay: Test 1: Acute toxicity, minimal motor impairment (rotorod), mice i.p.; format: in vivo; details: for Rotorod Toxicity: class symbol = dose
Procedure: as §1, §2

MES-induced seizures [5] = assay: Test 2: MES, rats p.o.; format: in vivo; details: 30 mg/kg
Excerpt: as §4, §5

[6] = Oral pharmacokinetics (plasma salicylate by HPLC); details: rats, 35 mg/kg equivalent dose
[7] = In vitro plasma stability; details: rat plasma at 37 °C, 30 minutes incubation, HPLC analysis
[8] = test system: carrageenan-induced rat paw edema; assay: Carrageenan-induced rat paw edema model; format: in vivo; details: 75 mg/kg equivalent dose of aspirin, p.o.
Procedure: Male or female Sprague-Dawley rats weighing 150-200 g were used in the study. The rats were fed normal standard laboratory chow and maintained under standard conditions (room temperature of 22 ± 2 °C; 50 ± 10 % relative humidity; artificial light 06:00 to 18:00). All experimental procedures mentioned below are approved by institutional animal research committees and were performed in accordance with standard guidelines for the treatment of animals.
Anti-inflammatory activity of test compounds was measured in carrageenan-induced rat paw edema model (Takeuchi et al., J. Pharmacol. Exp. Ther. 1998, 286 (1), 115-121). […] We have not yet evaluated I-C1-NOPD5Bin this efficacy test.

Neurological toxicity [9] = assay: Test 3: neurological toxicity, rats p.o.; format: in vivo
Excerpt: as §5
(§6) Table 1: Primary Screening (Test 1) data for Anticonvulsant Activity and Neurotoxicity in Mice (test compound administered i.p.)

MES-induced seizures [10] = assay: Test 3: MES quantification (time to peak effect, ED50), rats p.o.; format: in vivo; details: for Biological Response MES (number of animal protected/number of animal tested): time 6 h
clonic seizures [11] = assay: Test 3: scMET, rats p.o.; format: in vivo; details: 50 mg/kg
Procedure: as §3, §5, §6

[12] = rats, oral, 200 mg/kg equivalent doses, 3 hours after administration

## Nc1nc(NC(=O)OCCSSCCOC(=O)NCC2(CC(=O)O)CCCCC2)nnc1-c1cccc(Cl)c1Cl [I-AA-MPD11]
Clonic seizures [1]; 0.5 h
  ScMET: - (- = no activity or no toxicity at 300 mg/kg)
Clonic seizures [1]; 4.0 h
  ScMET: - (- = no activity or no toxicity at 300 mg/kg)
MES-induced seizures [2]
  activity in MES (Test 1, in words): active in MES
MES-induced seizures [2]; 100 mg/kg (++), 4.0 h
  MES (number of animal protected/number of animal tested): 3/3
MES-induced seizures [2]; 300 mg/kg (+), 0.5 h
  MES (number of animal protected/number of animal tested): 1/1
MES-induced seizures [2]; 300 mg/kg (+), 4.0 h
  MES (number of animal protected/number of animal tested): 1/1
Neurological toxicity [3]; 0.50 h
  Toxicity (number of animals exhibiting toxicity/number of animals tested): 0/4
Neurological toxicity [3]; 1.00 h
  Toxicity (number of animals exhibiting toxicity/number of animals tested): 0/4
Neurological toxicity [3]; 2.00 h
  Toxicity (number of animals exhibiting toxicity/number of animals tested): 0/4
Neurological toxicity [3]; 4.00 h
  Toxicity (number of animals exhibiting toxicity/number of animals tested): 0/4
[4]
  toxicity (Test 1, in words): no or mild toxicity
[4]; 300 mg/kg (+), 0.5 h
  Rotorod Toxicity (number of animals exhibiting toxicity/number of animals tested): 1/4
[4]; 4.0 h
  Rotorod Toxicity: - (- = no activity or no toxicity at 300 mg/kg)
MES-induced seizures [5]; 0.50 h
  MES (number of animal protected/number of animal tested): 0/4
MES-induced seizures [5]; 1.00 h
  MES (number of animal protected/number of animal tested): 2/4
MES-induced seizures [5]; 2.00 h
  MES (number of animal protected/number of animal tested): 1/4
MES-induced seizures [5]; 4.00 h
  MES (number of animal protected/number of animal tested): 4/4

## CC(=O)Oc1ccccc1C(=O)NCCSSCCO[N+](=O)[O-] [I-C1-NOPD6]
Mucosal damage; rats, oral, 100 mg/kg equivalent doses, 3 hours after administration
  ulcer development (in words): none of the animals treated with the test compounds showed any signs of development of ulcers
[6]; any time point up to 24 hrs
  prodrug or salicylate found in plasma: neither the prodrug nor the salicylate was found in the plasma

## CC(=O)Oc1ccccc1C(=O)O [Aspirin]
Mucosal damage; rat, in vivo, po, 100 mg/kg
  haemorrhagic lesions (area), Mean ± S.E.M.: 2.7 ± 0.9 mm^2
  ulcer development (in words): severe haemorrhagic lesions
Mucosal damage; rats, oral, high equivalent doses compared to aspirin
  gastrointestinal safety (summary in words): caused severe ulcers

## CC(=O)Oc1ccccc1C(=O)NC(=O)OCCSSCCO[N+](=O)[O-] [I-C1-NOPD5A]
[7]
  release of parent drug / conversion to salicylate: converting to the expected metabolite (salicylate)
Mucosal damage; [12]
  ulcer development (in words): none of the animals treated with the test compounds showed any signs of development of ulcers
[8]
  anti-inflammatory activity (in words): negligible anti-inflammatory activity at any time point tested

## CC(=O)Oc1ccccc1C(=O)[N-]C(=O)OCCSSCCO[N+](=O)[O-].[Na+] [I-C1-NOPD5B]
Mucosal damage; [12]
  ulcer development (in words): none of the animals treated with the test compounds showed any signs of development of ulcers
[6]
  salicylate release profile (in words): released in a sustained and controlled manner starting from 1 hour through 12 hours

## CCOC(=O)CC1(CNC(=O)OCCSSCCOC(=O)Nc2nnc(-c3cccc(Cl)c3Cl)c(N)n2)CCCCC1 [I-AA-MPD12]
Clonic seizures [1]; 0.5 h
  ScMET: - (- = no activity or no toxicity at 300 mg/kg)
Clonic seizures [1]; 4.0 h
  ScMET: - (- = no activity or no toxicity at 300 mg/kg)
Neurological toxicity [9]; 50 mg/kg
  toxicity (in words): none of the animals exhibited toxicity
Neurological toxicity [9]; 50 mg/kg, 1.0 h
  Toxicity (number of animals exhibiting toxicity/number of animals tested): 0/4 (5 0)
Neurological toxicity [9]; 50 mg/kg, 2.0 h
  Toxicity (number of animals exhibiting toxicity/number of animals tested): 0/4 (50)
Neurological toxicity [9]; 50 mg/kg, 4.0 h
  Toxicity (number of animals exhibiting toxicity/number of animals tested): 0/4 (50)
Neurological toxicity [9]; 50 mg/kg, 6.0 h
  Toxicity (number of animals exhibiting toxicity/number of animals tested): 0/4 (50)
Neurological toxicity [9]; 50 mg/kg, 8.0 h
  Toxicity (number of animals exhibiting toxicity/number of animals tested): 0/4 (50)
Neurological toxicity [9]; 50 mg/kg, 24 h
  Toxicity (number of animals exhibiting toxicity/number of animals tested): 0/4 (50)
Neurological toxicity [9]; 100 mg/kg
  toxicity (in words): one of eight animals exhibited mild ataxia
Neurological toxicity [9]; 100 mg/kg, 8.0 h, mild ataxia only (footnote h)
  Toxicity (number of animals exhibiting toxicity/number of animals tested): 1/8 (100)^h
MES-induced seizures [2]
  activity in MES (Test 1, in words): active in MES
MES-induced seizures [2]; 100 mg/kg (++), 4.0 h
  MES (number of animal protected/number of animal tested): 3/3
MES-induced seizures [2]; 100 mg/kg (++), 6 hours after dosing
  MES (number of animal protected/number of animal tested): 1/3
MES-induced seizures [2]; 300 mg/kg (+), 4.0 h
  MES (number of animal protected/number of animal tested): 1/1
MES-induced seizures [2]; 0.5 h
  MES: - (- = no activity or no toxicity at 300 mg/kg)
MES-induced seizures [2]; at 6 hours after dosing (footnotes g, m)
  MES: ++ (++ = activity or toxicity at 100 mg/kg)
MES-induced seizures [10]; 15 mg/kg, 6.0 h
  Time to Peak Effect MES (number of animal protected/number of animal tested): 2/4
MES-induced seizures [10]; 15 mg/kg, 8.0 h
  Time to Peak Effect MES (number of animal protected/number of animal tested): 1/4
MES-induced seizures [10]; 30 mg/kg, 0.5 h
  Time to Peak Effect MES (number of animal protected/number of animal tested): 0/4
MES-induced seizures [10]; 30 mg/kg, 1.0 h
  Time to Peak Effect MES (number of animal protected/number of animal tested): 0/4
MES-induced seizures [10]; 30 mg/kg, 2.0 h
  Time to Peak Effect MES (number of animal protected/number of animal tested): 1/4
MES-induced seizures [10]; 30 mg/kg, 4.0 h
  Time to Peak Effect MES (number of animal protected/number of animal tested): 3/4
MES-induced seizures [10]; 30 mg/kg, 6.0 h
  Time to Peak Effect MES (number of animal protected/number of animal tested): 4/4
MES-induced seizures [10]; 30 mg/kg, 8.0 h
  Time to Peak Effect MES (number of animal protected/number of animal tested): 4/4
MES-induced seizures [10]; 30 mg/kg, 24 h
  Time to Peak Effect MES (number of animal protected/number of animal tested): 2 out of 4 and 2/4
MES-induced seizures [10]; MES
  potency compared with parent drug lamotrigine (in words): less potent than lamotrigine
MES-induced seizures [10]; MES model, at the compound's time of peak effect (4, 6 or 8 h)
  ED50: 17 mg/kg
MES-induced seizures [10]; MES, 30 mg/kg, up to 24 h
  duration of protection (in words): significant extension in the duration of protection
MES-induced seizures [10]; MES, dose of 30 mg/kg
  time to peak effect: 6.0 to 8.0 h
MES-induced seizures [10]; dose 7.5 mg/kg
  Biological Response MES (number of animal protected/number of animal tested): 0/8
MES-induced seizures [10]; dose 15 mg/kg
  Biological Response MES (number of animal protected/number of animal tested): 5/8
MES-induced seizures [10]; dose 30 mg/kg
  Biological Response MES (number of animal protected/number of animal tested): 7/8
MES-induced seizures [10]; dose 60 mg/kg
  Biological Response MES (number of animal protected/number of animal tested): 7/8
Clonic seizures [11]; 1.0 h
  Time to Peak Effect ScMET (number of animal protected/number of animal tested): 1/4
Clonic seizures [11]; 2.0 h
  Time to Peak Effect ScMET (number of animal protected/number of animal tested): 0/4
Clonic seizures [11]; 4.0 h
  Time to Peak Effect ScMET (number of animal protected/number of animal tested): 0/4
Clonic seizures [11]; 6.0 h
  Time to Peak Effect ScMET (number of animal protected/number of animal tested): 1/4
Clonic seizures [11]; 8.0 h
  Time to Peak Effect ScMET (number of animal protected/number of animal tested): 2/4
Clonic seizures [11]; 24 h
  Time to Peak Effect ScMET (number of animal protected/number of animal tested): 0/4
Neurological toxicity [3]; 0.50 h
  Toxicity (number of animals exhibiting toxicity/number of animals tested): 0/4
Neurological toxicity [3]; 1.00 h
  Toxicity (number of animals exhibiting toxicity/number of animals tested): 0/4
Neurological toxicity [3]; 2.00 h
  Toxicity (number of animals exhibiting toxicity/number of animals tested): 0/4
Neurological toxicity [3]; 4.00 h
  Toxicity (number of animals exhibiting toxicity/number of animals tested): 0/4
[4]
  toxicity (Test 1, in words): no or mild toxicity
[4]; 0.5 h
  Rotorod Toxicity: - (- = no activity or no toxicity at 300 mg/kg)
[4]; 4.0 h
  Rotorod Toxicity: - (- = no activity or no toxicity at 300 mg/kg)
MES-induced seizures [5]; 0.50 h
  MES (number of animal protected/number of animal tested): 0/4
MES-induced seizures [5]; 1.00 h
  MES (number of animal protected/number of animal tested): 0/4
MES-induced seizures [5]; 2.00 h
  MES (number of animal protected/number of animal tested): 1/4
MES-induced seizures [5]; 4.00 h
  MES (number of animal protected/number of animal tested): 3/4
